Laboratory results: patent publication US20180235221A1 (priority 2015, published 2018)

Experiments:
[1] = system: Qol resistant Alternaria solani isolate (141); assay: Microtest, activity against early blight pathogen Alternaria solani; assay type: cell-based; conditions: single active compound, MTP, 405 nm, 7 days after inoculation
[2] = system: Qol resistant Septoria tritici isolate (3573); assay: Microtest, activity against causal agent of leaf blotch Septoria tritici; assay type: cell-based; conditions: single active compound, MTP, 405 nm, 7 days after inoculation

Structure (SMILES) | Observed efficacy ([1]; 0.016 ppm) [%] | Observed efficacy ([1]; 0.063 ppm) [%] | Observed efficacy ([1]; 0.25 ppm) [%] | Observed efficacy ([2]; 0.016 ppm) [%] | Observed efficacy ([2]; 0.063 ppm) [%] | Observed efficacy ([2]; 0.25 ppm) [%]
CC(=NOCc1c(C)cccc1-n1nnn(C)c1=O)c1cccc(C(F)(F)F)c1 [II-11, -methyl-4-[3-methyl-2-[[1-[3-(trifluoromethyl)-phenyl]-ethylideneamino]oxymethyl]phenyl]tetrazol-5-one] | 0 | 0 | 15 |  |  | 
CNC(=O)C(=N/OC)/C(C)=C\COc1ccn(-c2ccc(Cl)cc2Cl)n1 [Compound I-3, (Z,2E)-5-[1-(2,4-dichlorophenyl)pyrazol-3-yl]oxy-2-methoxyimino-N,3-dimethyl-pent-3-en-amide] |  | 0 | 0 | 10 | 32 | 
Cn1nnn(-c2cccc(Br)c2COc2ccn(-c3ccc(Cl)cc3)n2)c1=O [II-2, 1-[3-bromo-2-[[1-(4-chlorophenyl)pyrazol-3-yl]oxymethyl]phenyl]-4-methyl-tetrazol-5-one] | 0 | 0 | 0 |  |  | 
Cn1nnn(-c2cccc(Cl)c2COc2ccn(-c3ccc(Cl)cc3)n2)c1=O [II-1, 1-[3-chloro-2[[1-(4-chlorophenyl)-1H-pyrazol-3-yl]oxymethyl]phenyl]-4-methyl-tetrazol-5-one] | 0 | 0 |  |  |  | 23
CNC(=O)C(=N/OC)/C(C)=C\COc1ccn(-c2ccc(Cl)cc2)n1 [Compound I-1, (Z,2E)-5-[1-(4-chlorophenyl)pyrazol-3-yl]oxy-2-methoxyimino-N,3-dimethyl-pent-3-enamide] |  |  | 0 | 10 | 21 | 49
Cn1nnn(-c2cccc(F)c2COc2ccn(-c3ccc(Cl)cc3)n2)c1=O [II-4, 1-[2-[[1-(4-chlorophenyl)pyrazol-3-yl]oxymethyl]-3-fluoro-phenyl]-4-methyl-tetrazol-5-one] | 0 | 0 |  |  |  | 
Cc1cccc(-n2nnn(C)c2=O)c1COc1ccn(-c2ccc(Cl)cc2)n1 [II-3, 1-[2-[[1-(4-chlorophenyl)pyrazol-3-yl]oxymethyl]-3-methyl-phenyl]-4-methyl-tetrazol-5-one] | 0 |  |  |  |  | 17
Cn1nnn(-c2cccc(F)c2COc2ccn(-c3ccc(Cl)cc3Cl)n2)c1=O [II-5, 1-[2-[[1-(2,4-dichlorophenyl)pyrazol-3-yl]oxymethyl]-3-fluoro-phenyl]-4-methyl-tetrazol-5-one] | 6 |  |  |  |  | 
